# In patent US20120220564A1, “SELECTIVE CALCIUM CHANNEL MODULATORS” (Zalicus Pharmaceuticals Ltd., priority 2009, published 2012):
# Key:
# α1H (CaV 3.2) = target: T1, α1H (CaV 3.2) (Homo sapiens, UniProt O95180); assay: T-type calcium channel block, whole cell patch clamp; type: cell-based; settings: HEK cells, mainly non-inactivated protocol; values above 10,000 nM represented as 10000
# T1 construct: expressed in transfected cells; host or cells: HEK 293
# Experimental: (§1) T-type calcium channel blocking activity was assayed in human embryonic kidney cells, HEK 293 (Invitrogen), stably transfected with the T-type calcium channel subunits. Briefly, cells were cultured in Dulbecco's modified eagle medium (DMEM) supplemented with 10% fetal bovine serum, 200 U/ml penicillin, and 0.2 mg/mL streptomycin at 37° C. with 5% CO2. At 85% confluency, cells were split with 0.25% trypsin/1 mM EDTA and plated at 10% confluency on glass coverslips. At 12 hours, the medium was replaced, and the cells stably transfected using a standard calcium phosphate protocol and the appropriate calcium channel cDNA's. Fresh DMEM was supplied, and the cells transferred to 28° C./5% CO2. Cells were incubated for 1 to 2 days prior to whole cell recording.
# (§2) Standard patch-clamp techniques were employed to identify blockers of T-type currents. Briefly, previously described HEK cell lines stably expressing human α1G, α1H and α1I T-type channels were used for all the recordings (passage #: 4-20, 37° C., 5% CO2). Whole cell patch clamp experiments were performed using an Axopatch 200B amplifier (Axon Instruments, Burlingame, Calif.) linked to a personal computer equipped with pCLAMP software. Data were analyzed using Clampfit (Axon Instruments) and SigmaPlot 4.0 (Jandel Scientific). To obtain T-type currents, plastic dishes containing semi-confluent cells were positioned on the stage of a ZEISS AXIOVERT S100 microscope after replacing the culture medium with external solution (Table 2). Whole-cell patches were obtained using pipettes (borosilicate glass with filament, O.D.: 1.5 mm, I.D.: 0.86 mm, 10 cm length), fabricated on a SUTTER P-97 puller with resistance values of ˜5 MΩ (Table 3).
# (§3) T-type currents were reliably obtained by using two voltage protocols:
# (§4) In the non-inactivating protocol, the holding potential is set at −110 mV and with a pre-pulse at −100 mV for 1 second prior to the test pulse at −40 mV for 50 ms. In the inactivation protocol, the pre-pulse is at approximately −85 mV for 1 second, which inactivates about 15% of the T-type channels (Scheme 1).
# (§5) Test compounds were dissolved in external solution, 0.1-0.01% DMSO. After ˜10 minutes rest, they were applied by gravity close to the cell using a WPI microfil tubing. The “non-inactivated” pre-pulse was used to examine the resting block of a compound. The “inactivated” protocol was employed to study voltage-dependent block. However, the initial data shown below were mainly obtained using the non-inactivated protocol only. IC50 values are shown for various compounds of the invention in Table 4. […] In Table 4, empty cells indicate that inhibition by the compound was not detected.
# α1G (CaV 3.1) = target: T2, α1G (CaV 3.1) (Homo sapiens, UniProt O43497); assay: as above; type: cell-based; settings: HEK cells, mainly non-inactivated protocol; values above 10,000 nM represented as 10000
# T2 construct: expressed in transfected cells; host or cells: HEK 293
# Experimental: as §1, §2, §3, §4, §5
# T2 sequence (O43497 whole entry): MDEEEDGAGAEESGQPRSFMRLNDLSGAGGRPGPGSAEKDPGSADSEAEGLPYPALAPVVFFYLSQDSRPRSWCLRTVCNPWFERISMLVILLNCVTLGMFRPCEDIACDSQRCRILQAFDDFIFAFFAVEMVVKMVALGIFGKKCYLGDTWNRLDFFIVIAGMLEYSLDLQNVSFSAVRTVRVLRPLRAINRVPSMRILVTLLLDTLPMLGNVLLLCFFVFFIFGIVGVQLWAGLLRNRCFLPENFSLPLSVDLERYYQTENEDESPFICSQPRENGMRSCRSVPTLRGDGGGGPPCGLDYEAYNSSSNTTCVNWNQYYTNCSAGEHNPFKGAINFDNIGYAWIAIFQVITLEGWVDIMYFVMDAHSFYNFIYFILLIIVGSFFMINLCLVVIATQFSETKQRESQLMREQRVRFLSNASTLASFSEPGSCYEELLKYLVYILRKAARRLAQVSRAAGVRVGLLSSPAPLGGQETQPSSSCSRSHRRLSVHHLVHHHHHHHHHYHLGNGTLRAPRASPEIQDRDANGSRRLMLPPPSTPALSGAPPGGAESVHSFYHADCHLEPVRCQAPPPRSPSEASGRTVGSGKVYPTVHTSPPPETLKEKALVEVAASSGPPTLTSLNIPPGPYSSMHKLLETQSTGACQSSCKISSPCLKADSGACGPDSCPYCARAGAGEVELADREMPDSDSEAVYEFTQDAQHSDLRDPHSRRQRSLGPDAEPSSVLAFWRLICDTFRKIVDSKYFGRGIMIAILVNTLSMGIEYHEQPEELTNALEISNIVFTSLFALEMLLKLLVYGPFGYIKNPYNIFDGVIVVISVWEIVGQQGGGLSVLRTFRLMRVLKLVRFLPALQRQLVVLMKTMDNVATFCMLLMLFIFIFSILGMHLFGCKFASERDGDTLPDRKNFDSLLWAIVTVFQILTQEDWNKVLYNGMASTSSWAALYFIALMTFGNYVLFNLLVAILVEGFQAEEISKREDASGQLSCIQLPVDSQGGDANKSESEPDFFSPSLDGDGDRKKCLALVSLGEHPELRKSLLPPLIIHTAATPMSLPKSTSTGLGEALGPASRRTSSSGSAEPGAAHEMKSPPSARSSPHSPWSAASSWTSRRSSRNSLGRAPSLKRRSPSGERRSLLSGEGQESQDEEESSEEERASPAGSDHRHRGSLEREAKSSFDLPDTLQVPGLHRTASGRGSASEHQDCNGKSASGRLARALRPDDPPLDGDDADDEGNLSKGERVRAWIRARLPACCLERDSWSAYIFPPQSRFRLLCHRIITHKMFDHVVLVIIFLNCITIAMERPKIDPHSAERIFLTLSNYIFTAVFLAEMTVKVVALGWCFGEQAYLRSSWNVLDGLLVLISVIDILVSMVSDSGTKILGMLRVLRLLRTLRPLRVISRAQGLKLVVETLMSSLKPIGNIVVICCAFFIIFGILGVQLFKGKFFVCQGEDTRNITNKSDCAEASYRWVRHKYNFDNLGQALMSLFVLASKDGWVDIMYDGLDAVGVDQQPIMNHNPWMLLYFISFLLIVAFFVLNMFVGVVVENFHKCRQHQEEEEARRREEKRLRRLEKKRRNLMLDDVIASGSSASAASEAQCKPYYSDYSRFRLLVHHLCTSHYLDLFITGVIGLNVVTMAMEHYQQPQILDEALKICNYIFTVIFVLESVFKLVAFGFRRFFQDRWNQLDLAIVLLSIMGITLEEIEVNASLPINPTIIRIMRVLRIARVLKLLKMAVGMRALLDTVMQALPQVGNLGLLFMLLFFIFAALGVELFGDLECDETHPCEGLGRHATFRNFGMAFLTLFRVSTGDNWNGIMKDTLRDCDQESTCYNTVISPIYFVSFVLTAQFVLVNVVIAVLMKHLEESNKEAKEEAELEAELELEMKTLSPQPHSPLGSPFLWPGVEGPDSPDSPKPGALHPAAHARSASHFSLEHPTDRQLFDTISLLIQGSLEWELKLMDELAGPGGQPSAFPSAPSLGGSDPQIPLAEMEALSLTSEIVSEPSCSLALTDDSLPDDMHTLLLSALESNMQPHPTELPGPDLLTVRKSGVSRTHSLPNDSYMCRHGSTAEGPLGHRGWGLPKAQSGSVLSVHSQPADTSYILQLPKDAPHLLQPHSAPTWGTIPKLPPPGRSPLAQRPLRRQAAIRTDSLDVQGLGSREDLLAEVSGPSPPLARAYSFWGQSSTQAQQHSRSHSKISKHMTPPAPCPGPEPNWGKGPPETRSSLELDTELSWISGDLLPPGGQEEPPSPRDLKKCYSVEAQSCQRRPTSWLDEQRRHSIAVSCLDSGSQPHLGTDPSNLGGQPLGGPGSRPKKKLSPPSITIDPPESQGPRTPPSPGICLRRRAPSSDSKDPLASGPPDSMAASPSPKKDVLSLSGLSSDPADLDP
# T1 sequence (O95180 whole entry): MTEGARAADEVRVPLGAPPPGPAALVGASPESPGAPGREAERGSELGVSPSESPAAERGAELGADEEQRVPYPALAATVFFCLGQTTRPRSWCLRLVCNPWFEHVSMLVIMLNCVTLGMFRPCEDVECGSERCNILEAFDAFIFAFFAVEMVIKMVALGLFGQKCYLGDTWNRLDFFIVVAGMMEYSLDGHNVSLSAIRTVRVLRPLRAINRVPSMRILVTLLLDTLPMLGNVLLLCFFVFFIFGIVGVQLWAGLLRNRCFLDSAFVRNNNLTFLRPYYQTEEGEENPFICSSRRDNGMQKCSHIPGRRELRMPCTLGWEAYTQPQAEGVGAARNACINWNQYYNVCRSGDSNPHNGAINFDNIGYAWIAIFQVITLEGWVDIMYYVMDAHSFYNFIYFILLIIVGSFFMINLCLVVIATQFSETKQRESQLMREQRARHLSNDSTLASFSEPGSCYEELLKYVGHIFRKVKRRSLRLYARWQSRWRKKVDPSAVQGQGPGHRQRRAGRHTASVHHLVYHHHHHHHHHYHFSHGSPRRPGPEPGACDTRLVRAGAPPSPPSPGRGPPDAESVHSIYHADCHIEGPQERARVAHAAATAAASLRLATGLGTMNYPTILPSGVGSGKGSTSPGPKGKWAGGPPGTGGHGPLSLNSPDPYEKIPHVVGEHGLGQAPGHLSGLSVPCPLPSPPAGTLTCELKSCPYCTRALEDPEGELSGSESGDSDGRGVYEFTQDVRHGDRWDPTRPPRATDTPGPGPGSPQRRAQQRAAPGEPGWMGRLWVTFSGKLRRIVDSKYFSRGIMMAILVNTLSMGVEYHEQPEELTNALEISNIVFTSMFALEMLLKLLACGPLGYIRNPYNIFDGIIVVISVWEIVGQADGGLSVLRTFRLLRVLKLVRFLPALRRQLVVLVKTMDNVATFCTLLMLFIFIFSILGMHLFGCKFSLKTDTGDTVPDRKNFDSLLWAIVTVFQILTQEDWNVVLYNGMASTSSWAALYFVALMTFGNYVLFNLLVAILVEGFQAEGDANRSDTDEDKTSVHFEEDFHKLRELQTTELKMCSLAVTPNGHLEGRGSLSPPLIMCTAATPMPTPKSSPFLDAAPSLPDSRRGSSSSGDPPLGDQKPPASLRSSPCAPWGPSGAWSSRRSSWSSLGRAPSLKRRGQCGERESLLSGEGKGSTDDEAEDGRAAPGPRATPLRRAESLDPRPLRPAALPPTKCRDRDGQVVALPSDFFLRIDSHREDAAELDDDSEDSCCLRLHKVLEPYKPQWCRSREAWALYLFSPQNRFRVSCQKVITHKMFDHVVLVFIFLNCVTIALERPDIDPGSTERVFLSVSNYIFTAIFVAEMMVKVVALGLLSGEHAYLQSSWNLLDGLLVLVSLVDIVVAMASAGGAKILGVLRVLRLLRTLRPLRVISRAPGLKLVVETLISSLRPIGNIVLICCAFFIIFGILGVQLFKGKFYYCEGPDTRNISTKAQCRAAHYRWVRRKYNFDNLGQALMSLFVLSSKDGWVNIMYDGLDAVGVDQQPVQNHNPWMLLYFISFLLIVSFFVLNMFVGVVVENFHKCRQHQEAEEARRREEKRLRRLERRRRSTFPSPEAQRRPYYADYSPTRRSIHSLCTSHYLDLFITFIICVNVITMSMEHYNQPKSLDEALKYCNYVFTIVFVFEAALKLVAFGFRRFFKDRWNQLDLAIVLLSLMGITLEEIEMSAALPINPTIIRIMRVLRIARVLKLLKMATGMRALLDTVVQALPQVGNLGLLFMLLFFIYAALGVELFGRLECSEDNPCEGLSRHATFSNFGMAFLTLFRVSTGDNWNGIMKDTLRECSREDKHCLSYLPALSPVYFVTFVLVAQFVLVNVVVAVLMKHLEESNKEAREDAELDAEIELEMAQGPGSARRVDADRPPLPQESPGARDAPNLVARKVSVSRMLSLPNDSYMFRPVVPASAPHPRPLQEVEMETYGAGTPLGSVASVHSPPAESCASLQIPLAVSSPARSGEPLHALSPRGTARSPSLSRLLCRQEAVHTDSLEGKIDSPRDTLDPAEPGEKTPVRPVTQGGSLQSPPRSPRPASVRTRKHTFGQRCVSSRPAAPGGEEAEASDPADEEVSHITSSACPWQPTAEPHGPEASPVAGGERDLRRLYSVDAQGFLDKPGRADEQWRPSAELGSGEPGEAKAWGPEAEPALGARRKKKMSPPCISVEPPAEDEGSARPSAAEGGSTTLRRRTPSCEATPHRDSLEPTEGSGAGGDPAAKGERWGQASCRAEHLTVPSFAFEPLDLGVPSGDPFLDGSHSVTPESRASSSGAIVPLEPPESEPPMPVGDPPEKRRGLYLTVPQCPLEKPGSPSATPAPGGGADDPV
IC50 (α1H (CaV 3.2)) [µM],IC50 (α1G (CaV 3.1)) [µM],SMILES
0.92,> 10,"N[C@H]1CCCC[C@@H]1C(=O)N1CCC(CC(=O)Nc2ccc(Br)c(C(F)(F)F)c2)CC1 (racemic) [Compound 20, trans-2-(1-(2-aminocyclohexanecarbonyl)piperidin-4-yl)-N-(4-bromo-3-(trifluoromethyl)phenyl)acetamide]"
0.85,> 10,"N[C@H]1CCCC[C@H]1C(=O)N1CC(CC(=O)Nc2cc(C(F)(F)F)cc(C(F)(F)F)c2)C1 (racemic) [Compound 41, cis-2-(1-(2-aminocyclohexanecarbonyl)azetidin-3-yl)-N-(3,5-bis(trifluoromethyl)phenyl)acetamide]"
1.85,> 10,N[C@@H]1CCCC[C@H]1C(=O)N1CCC(CNC(=O)c2cc(C(F)(F)F)cc(C(F)(F)F)c2)CC1 (racemic) [Compound 48]
0.14,> 10,"N[C@H]1CCCC[C@@H]1C(=O)N1CCC(CC(=O)Nc2cc(C(F)(F)F)cc(C(F)(F)F)c2)CC1 [Compound 7, 2-(1-((1S,2S)-2-aminocyclohexanecarbonyl)piperidin-4-yl)-N-(3,5-bis(trifluoromethyl)phenyl)acetamide]"
0.71,8.95,"N[C@H]1CCCC[C@H]1C(=O)N1CCC(CC(=O)Nc2cc(C(F)(F)F)cc(C(F)(F)F)c2)C1 (stereo partly drawn) [Compound 30, 2-(1-((1R,2S)-2-aminocyclohexanecarbonyl)pyrrolidin-3-yl)-N-(3,5-bis(trifluoromethyl)phenyl)acetamide]"
0.46,6.19,"N[C@@H]1CCCC[C@@H]1C(=O)N1CCC(CC(=O)Nc2cc(C(F)(F)F)cc(C(F)(F)F)c2)C1 (stereo partly drawn) [Compound 31, 2-(1-((1S,2R)-2-aminocyclohexanecarbonyl)pyrrolidin-3-yl)-N-(3,5-bis(trifluoromethyl)phenyl)acetamide]"
0.63,5.66,"N[C@@H]1CCCC[C@H]1C(=O)N1CCC(CC(=O)Nc2cc(C(F)(F)F)cc(C(F)(F)F)c2)C1 (stereo partly drawn) [Compound 32, 2-(1-((1R,2R)-2-aminocyclohexanecarbonyl)pyrrolidin-3-yl)-N-(3,5-bis(trifluoromethyl)phenyl)acetamide]"
0.26,5.29,"N[C@H]1CCCC[C@@H]1C(=O)N1CCC(CC(=O)Nc2cc(C(F)(F)F)cc(C(F)(F)F)c2)C1 (stereo partly drawn) [Compound 33, 2-(1-((1S,2S)-2-aminocyclohexanecarbonyl)pyrrolidin-3-yl)-N-(3,5-bis(trifluoromethyl)phenyl)acetamide]"

# Second part, the compound before the results:
SMILES,IC50 (α1H (CaV 3.2)) [µM],IC50 (α1G (CaV 3.1)) [µM]
"N[C@@H]1CCCC[C@H]1C(=O)N1CC(CC(=O)Nc2cc(C(F)(F)F)cc(C(F)(F)F)c2)C1 (racemic) [Compound 40, trans-2-(1-(2-aminocyclohexanecarbonyl)azetidin-3-yl)-N-(3,5-bis(trifluoromethyl)phenyl)acetamide]",0.83,> 10
"CN1CCCC(C(=O)N2CCC(CC(=O)Nc3cc(C(F)(F)F)cc(C(F)(F)F)c3)CC2)C1 (stereo not drawn) [Compound 1, N-(3,5-bis(trifluoromethyl)phenyl)-2-(1-(1-methylpiperidine-3-carbonyl)piperidin-4-yl)acetamide]",0.51,> 10
"N[C@@H]1CCCC[C@H]1C(=O)N1CCC(CC(=O)Nc2cc(C(F)(F)F)cc(C(F)(F)F)c2)CC1 [Compound 6, 2-(1-((1R,2R)-2-aminocyclohexanecarbonyl)piperidin-4-yl)-N-(3,5-bis(trifluoromethyl)phenyl)acetamide]",0.25,> 10
"NC1(C(=O)N2CCC(CC(=O)Nc3cc(C(F)(F)F)cc(C(F)(F)F)c3)CC2)CCCCC1 [Compound 9, 2-(1-(1-aminocyclohexanecarbonyl)piperidin-4-yl)-N-(3,5-bis(trifluoromethyl)phenyl)acetamide]",0.99,4.68
"O=C(CC1CCN(C(=O)C2CCCCN2)C1)Nc1cc(C(F)(F)F)cc(C(F)(F)F)c1 (stereo not drawn) [Compound 29, N-(3,5-bis(trifluoromethyl)phenyl)-2-(1-(piperidine-2-carbonyl)pyrrolidin-3-yl)acetamide]",0.57,7.02
"CC1(C(=O)N2CCC(CC(=O)Nc3cc(C(F)(F)F)cc(C(F)(F)F)c3)C2)CCCCN1 (stereo not drawn) [Compound 34, N-(3,5-bis(trifluoromethyl)phenyl)-2-(1-(2-methylpiperidine-2-carbonyl)pyrrolidin-3-yl)acetamide]",1.94,4.4
"CN1CCCCC1C(=O)N1CCC(CC(=O)Nc2cc(C(F)(F)F)cc(C(F)(F)F)c2)C1 (stereo not drawn) [Compound 35, N-(3,5-bis(trifluoromethyl)phenyl)-2-(1-(1-methylpiperidine-2-carbonyl)pyrrolidin-3-yl)acetamide]",1.95,6.02
"CN1CCCC(C(=O)N2CCC(CC(=O)Nc3cc(C(F)(F)F)cc(C(F)(F)F)c3)C2)C1 (stereo not drawn) [Compound 36, N-(3,5-bis(trifluoromethyl)phenyl)-2-(1-(1-methylpiperidine-3-carbonyl)pyrrolidin-3-yl)acetamide]",2.44,8.1
"CN1CCCCC1C(=O)N1CC(CC(=O)Nc2cc(C(F)(F)F)cc(C(F)(F)F)c2)C1 (stereo not drawn) [Compound 37, N-(3,5-bis(trifluoromethyl)phenyl)-2-(1-(1-methylpiperidine-2-carbonyl)azetidin-3-yl)acetamide]",4.39,> 10
"CN1CCCC(C(=O)N2CC(CC(=O)Nc3cc(C(F)(F)F)cc(C(F)(F)F)c3)C2)C1 (stereo not drawn) [Compound 38, N-(3,5-bis(trifluoromethyl)phenyl)-2-(1-(1-methylpiperidine-3-carbonyl)azetidin-3-yl)acetamide]",8.04,> 10
"O=C(CC1CN(C(=O)C2CCCCN2)C1)Nc1cc(C(F)(F)F)cc(C(F)(F)F)c1 (stereo not drawn) [Compound 39, N-(3,5-bis(trifluoromethyl)phenyl)-2-(1-(piperidine-2-carbonyl)azetidin-3-yl)acetamide]",1.21,> 10
"CC(C)(N)CC(=O)N1CCC(CC(=O)Nc2cc(C(F)(F)F)cc(C(F)(F)F)c2)CC1 [Compound 42, 2-(1-(3-amino-3-methylbutanoyl)piperidin-4-yl)-N-(3,5-bis(trifluoromethyl)phenyl)acetamide]",0.57,> 10
"CC(C)(N)CC(=O)N1CC(CC(=O)Nc2cc(C(F)(F)F)cc(C(F)(F)F)c2)C1 [Compound 43, 2-(1-(3-amino-3-methylbutanoyl)azetidin-3-yl)-N-(3,5-bis(trifluoromethyl)phenyl)acetamide]",> 10,> 10
"CC(C)(N)CC(=O)N1CCC(CC(=O)Nc2cc(C(F)(F)F)cc(C(F)(F)F)c2)C1 (stereo not drawn) [Compound 44, 2-(1-(3-amino-3-methylbutanoyl)pyrrolidin-3-yl)-N-(3,5-bis(trifluoromethyl)phenyl)acetamide]",2.1,> 10
"CC(C)(CN)C(=O)N1CCC(CC(=O)Nc2cc(C(F)(F)F)cc(C(F)(F)F)c2)CC1 [Compound 45, 2-(1-(3-amino-2,2-dimethylpropanoyl)piperidin-4-yl)-N-(3,5-bis(trifluoromethyl)phenyl)acetamide]",0.54,> 10
"CC(C)(CN)C(=O)N1CC(CC(=O)Nc2cc(C(F)(F)F)cc(C(F)(F)F)c2)C1 [Compound 46, 2-(1-(3-amino-2,2-dimethylpropanoyl)azetidin-3-yl)-N-(3,5-bis(trifluoromethyl)phenyl)acetamide]",> 10,> 10
